“And” between values parts separate entries of the source, which are not always exact repeats. Equal entries are not always repeated.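 Compound exposure: 48 hours, 5 concentrations, 96-well plates. Abbreviation: GI50, concentration required for 50% inhibition of growth. TGI denotes the concentration required for complete inhibition of growth.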
Legend:
Experiment in all cases: inhibition of tumour cell growth, NCI panel, 48 h
[1] = system: A549 NSCLC
[2] = system: HCT-15 colon
[3] = system: HL-60(TB) leukemia
[4] = system: IGROV1 ovarian
[5] = system: SF-268 CNS
[6] = system: UO-31 renal
[7] = system: NCI-H23 lung
[8] = system: SW-620 colon
[9] = system: HOP-92 NSCLC
[10] = system: RPMI-8226 leukemia

Structure (SMILES)	GI50 [1] [µM]	TGI [1] [µM]	GI50 [2] [µM]	TGI [2] [µM]	GI50 [3] [µM]	TGI [3] [µM]	GI50 [4] [µM]	TGI [4] [µM]	GI50 [5] [µM]	TGI [5] [µM]	GI50 [6] [µM]	TGI [6]	GI50 [7] [µM]	TGI [7] [µM]	GI50 [8] [µM]	TGI [8] [µM]	TGI [9] [µM]	TGI [10] [µM]	GI50 [9] [µM]	GI50 [10] [µM]
Cc1nc2ccccc2c(/C=C/c2ccccc2)c1C(=O)/C=C/c1ccccc1	2.29	6.06	1.56	4.4	2.45	6.51	1.84	6.18	2.14	6.24	1.33	2.61 µM								
COc1cccc(NC(=O)c2ccc(NC3=C(Cl)C(=O)N(Cc4ccccc4)C3=O)cc2)c1	13.6	38	1.4	2.71	11.9	29	13.3	28.7	17.5	37.4	18.2	62.6 µM	15.3	28.6	10.3	25.7				
COc1ccc(C[C@H]2NC[C@H](O)[C@H]2OC(C)=O)cc1	0.0413	3.48						0.153		1.03		0.181 µM		0.52		0.15	0.186	0.332		
Cc1ccc2c(c1)-c1oc(=O)c(-c3cc4ccccc4oc3=O)cc1C(O)O2 (configuration not stated)	29.9	> 100	23.9	48.8			17.4	52.1	34.2	> 100	16.7	37.3 µM	23.5	45.8	18.9	33.5	40.5	> 100	17.3	35.1
Cc1ccc(-c2cc(=O)c3cc(C)c(C)c(C(=O)O)c3o2)cc1[N+](=O)[O-]		> 100		> 100				> 100		> 100		> 100 µM		> 100		> 100		> 100		
CCN(CC)CCOc1ccc(Cc2ccccc2)cc1	49.8	> 100	15.1	53.9			24	74.6	35.3	> 100	18.4	> 100 µM	33.4	> 100	17.4	42.4	51.1	76.1	5.61	20.7
COc1cc2c(cc1OC)-c1ncc3cc(OC)c(OC)c(OC)c3c1C2	32.1	> 100	35.4	> 100			33.5	> 100			5.49	53.6 µM			38.7	> 100	> 100	23.1	15.3	3.4
Cc1ccc(-n2c3c(c4c(CN)c(O)ccc42)CCc2ccccc2C3=O)cc1	18.7	35.8	15.9	30.9			8.18	22.8	9.06	28.3	8.2	22.1 µM	14.1	28.5	2.48	8.19	8.11	23.1	2.31	4.31
COc1ccc(/C=C2\CCc3ccccc3C2=O)cc1OC		> 100		45.5				> 100		62.6		> 100 µM		> 100		82.5		64.8		
[N-]=[N+]=NC1C2CC3CC(C2)CC1C3 (configuration not stated)		> 100						> 100				> 100 µM		> 100		> 100	> 100	> 100		
COc1ccc2c(c1OC)C(C=C(c1ccccc1)c1ccccc1)CN(C)C2 (configuration not stated)		88.2		33				43.5		72.2		> 100 µM		63.1		26.2	40.1	50.8		
CC1=CC2=C(C#N)C(=O)OC2(C)C(c2ccccc2)C1 (configuration not stated)		> 100		> 100				> 100		> 100		> 100 µM				> 100	> 100	> 100		
CCC(=O)Nc1ncnc2ncn(C(=O)CC)c12		> 100		> 100				> 100		> 100		> 100 µM		> 100		> 100	> 100	> 100		
CCCCCCC(O)C(O)CCC(O)C1CCC(CCCCC(O)CC2=CC(C)OC2=O)O1 (configuration not stated)	10.6	35.3	19.2	80.4					20.3	48.8	16	7.75 µM and 35.2 µM	2.86	40.1	36.5	> 100	46.7	30.6	18.5	
CCCCCCCCCCCCC(NC(C)=O)(C(=O)OCC)C(=O)OCC	14.3	32.5	9.38	23			12.6	37.2	13.4	28.5	7.39	27.5 µM	10.8	24.8	13	26.9	25.4	44.8	12.2	10.8

Reference: PubChem BioAssay (NCI)
